# “Also recorded” adds a separate entry of the source. Read-outs that look alike come from different tables or passages of the source.
# Experiments:
# [1] = Inhibition of population growth (cytotoxicity), rat colon adenocarcinoma RCC-2; type: cell-based; settings: rat, rcc-2 cells; RCC-2; Table III; read-out: Modulator concentration (nontoxic concentration limit of the analog)
# Source text: (§1) The analogs were examined in a panel of tumor cell lines of both intrinsic and acquired drug resistance, as described in Table 1. The rat colon adenocarcinoma cell lines RCC-2 and RCC-5 (ref. 13) were maintained in Ham's F12 medium supplemented with 5% heat-inactivated, fetal bovine serum (Sterile Systems. Hyclone, Logan, Utah). The two rat colon cancer cell lines differ in their degree of cellular differentiation; whereas the RCC-2 cell line is undifferentiated, the RCC-5 cell line is highly mucinous. The human epidermoid carcinoma cell line KB-3-1 and its MDR variant KB-Vl, selected by VBL treatment (ref. 14; courtesy of M. Gottesman. National Cancer Institute), was maintained in DMEM medium supplemented with 10%, heat-inactivated, fetal bovine serum. The murine sarcoma cell line […] and its MDR strains A3 and A10 selected by ADM treatment (ref. 15; courtesy of T. Tritton, Dept. Pharmacology, Univ. Vermont). were maintained in DMEM medium supplemented with 10% heat-inactivated, horse serum (Hazelton Biolog. Lenexa, Kans.). Stock cultures were subcultured twice weekly upon reaching the late exponential phase of population growth: population doubling times were 18-24 h. Antibiotics were not used in stock or experimental cultures. The MDR cell strains were grown in drug-free media for 48 h prior to experimental use.
# (§2) Mid-exponential cultures were used for all assays. The RCC-2 and RCC-5 cell lines were seeded into 24-well plates at 2×10^4 cells/well and allowed to attach to the substratum for 16-18 h prior to treatment. The S180 cell lines were seeded into culture tubes at 1×10^5 cells/ml and treated immediately. Cytotoxicity was determined by quantitation of population growth after 72 h incubation by electronic particle counter (Coulter Electronics, Hialeah, Fla.). The human tumor cell lines were used in a clonogenic assay for cytotoxicity. Cells were seeded at 300 cells/dish, incubated overnight and then treated. Colonies were scored 7-11 days later. In all assays of analog modulation of drug sensitivity, the analog was added minutes prior to the addition of cytotoxic drug.
# [2] = Inhibition of population growth (cytotoxicity), rat colon adenocarcinoma RCC-5; type: cell-based; settings: rat, rcc-5 cells; RCC-5; Table III; read-out: Modulator concentration (nontoxic concentration limit of the analog)
# Source text: as §1, §2
# [3] = Inhibition of population growth (cytotoxicity), S180 sarcoma, parental; type: cell-based, mouse; settings: mouse, s180 cells; S180; Table III; read-out: Modulator concentration (nontoxic concentration limit of the analog)
# Source text: as §1, §2
# [4] = tested on: S180/MDR cell system and rat colon cancer cell lines; assay: Cytotoxicity in the S180/MDR cell system and the rat colon cancer cell lines; type: cell-based, mouse; settings: S-180, 72 h
# Source text: as §1, §2
# [5] = tested on: S180 cells, parental; assay: Modulation of intrinsic drug resistance, parental S180; type: cell-based, murine; settings: for Maximum sensitization of parental cells by modulator, drug ADM / Maximum sensitization of parental cells by modulator, drug VBL / Maximum sensitization of parental cells by modulator, drug VCR: S180, IC50 drug alone / IC50 drug + modulator, at nontoxic concentration limit; for modulation of sensitivity of parental S180 cells to VBL, VCR and ADM (in words): all three drugs
# Experimental: as §2
# The ability of the compounds to modulate drug sensitivity in parental cells was studied over a range of concentrations of each compound, from 10^-6 M to the non-toxic (IC10-20) or solubility limit. […] From such experiments, we determined a sensitivity index derived from the IC50 of the drug without modulator treatment divided by the drug IC50 at each concentration of modulator.
# When the sensitivity index for each drug, VBL, VCR and ADM is plotted versus the modulator concentration (FIG. 4), we can compare the relative potencies of the compounds as modulators of drug toxicity to the parental S180 cells.
# (§3) *calculated as the IC50 of the drug alone divided by the IC50 o
# (§4) the [drug modulator] combination. Data are presented from tretments with
# FIG. 4 represents the potency of the vinca alkaloid compounds as modulators of drug sensitivity in S180 cells. The enhancement of sensitivity was calculated as the sensitivity index=IC50 of the drug alone divided by the IC50 of the drug+modulator. The IC50s for ADM (o) VBL (Δ), or VCR (.quadrature.) were determined over a concentration range of each modulator from data such as those depicted in FIG. 3. The values presented were averaged from duplicate samples of two separate experiments, S.D. <15% of the mean.
# [6] = tested on: RCC-2 cells; assay: Modulation of intrinsic drug resistance, RCC-2; type: cell-based, rat; settings: IC50 drug alone / IC50 drug + modulator, at nontoxic concentration limit
# Experimental: as §2, §3, §4
# (§5) the nontoxic concentration limit of each analog as noted.
# [7] = tested on: RCC-5 cells; assay: Modulation of intrinsic drug resistance, RCC-5; type: cell-based, rat; settings: RCC-5; IC50 drug alone / IC50 drug + modulator, at nontoxic concentration limit
# Experimental: as §2, §3, §4, §5
# FIG. 9 represents the modulation of VCR sensitivity in the RCC-12 (A) and RCC-5 (B) cell lines by the analog C-20'-deoxy deethyl vincovaline. Population growth was determined after 72 hours incubation in the absence (o), or presence of 10 μM (o), 20 μM (Δ), or 50 μM of analog. Data presented are from a typical experiment.
# [8] = tested on: S180/A3 cells; assay: Modulator potency in MDR cells: reversal of acquired resistance, S180/A3; type: cell-based, murine; settings: for Modulator potency in MDR cells (minimal concentration restoring parental drug sensitivity), VBL: drug resistance level 3; for Modulator potency in MDR cells (minimal concentration restoring parental drug sensitivity), VCR: drug resistance level 7
# Experimental: as §2
# (§6) To evaluate the ability of vindoline and the two diastereoisomeric VBL analogs to modulate the MDR phenotype (acquired resistance) of the A3 and A10 cell stains, we determined the concentration of compound required to restore drug sensitivities to parental levels. This was done by exposing the MDR cell line to a concentration range of modulator in the presence VBL, VCR and ADM at the respective IC70s of the parental cell line. The cytotoxicity curves for A3 and A10 cells, shown in FIG. 5, are distinctive among the three vinca alkaloids examined. In each cell line, there was a minimum concentration of modulator that elicited 70% growth inhibition for each drug - i.e. the reversing concentration.
# (§7) *The minimal concentration of modulator required to restore the drug
# (§8) sensitivity of S180/MDR cell strains to that of parental S180 cells. Data
# (§9) are the averages of 2-3 separate experiments, S.D. ≤20%.
# [9] = tested on: S180/A10 cells; assay: Modulator potency in MDR cells: reversal of acquired resistance, S180/A10; type: cell-based, murine; settings: for Modulator potency in MDR cells (minimal concentration restoring parental drug sensitivity), ADM: drug resistance level 90; for Modulator potency in MDR cells (minimal concentration restoring parental drug sensitivity), VBL: drug resistance level 10
# Experimental: as §2, §6, §7, §8, §9
# [10] = tested on: S180 MDR cell strains A3 and A10; assay: Modulation of acquired drug resistance in the S180 MDR cell strains A3 and A10; type: cell-based, murine
# Experimental: as §2, §6
# FIG. 5 represents the modulation of multidrug resistance in the MDR cell strains by the vinca alkaloids. Vindoline (A), vincovaline (B), or the analog C-20'-deoxy vincovaline (C) was added, at various concentrations, to A3 (closed symbols) or A10 (opened symbols) cell cultures containing the parental IC70 of each drug: 2.0×10^-7 M. ADM (circles: 1.5×10^-8 M VBL (triangles); and 4.5×10^-8 M; VCR (squares). Population growth was determined 72 hours later.
# FIG. 6 represents the relationship between cellular drug resistance level and the minimal modulator concentration required for complete reversal of drug resistance. The drugs examined were ADM (o), VBL (Δ), and VCR (.quadrature.). The amount (concentration) of modulator, necessary to reverse each level of drug resistance contained in the A3 and A10 cell lines, was determined from data such as those of FIG. 5. The values presented were averaged from duplicate samples of two separate experiments, S.D.<15% of the mean. The arrows denote the non-toxic concentration limit for the modulator; in the case of Vincovaline this value is dependent on the MDR cell strain, 2×10^-5 M, A3; 5×10^-5 M. A10.
# FIG. 11 represents the modulation of multidrug resistance in the S180 MDR cell strains A3 and A10. The cellular drug resistance level is plotted against the minimal concentration of C-20'-deoxy deethyl vincovaline required for the complete reversal of drug resistance to ADM (o), VBL (Δ), and VCR (.quadrature.). In the case of high level ADM resistance […], the sensitivity of the cells was restored to 80% of the parental value. The arrow denotes the non-toxic concentration limit of the analog.
# [11] = tested on: parental cell lines (S180, RCC-2, RCC-5); assay: Modulation of intrinsic resistance in the parental cell lines (S180, RCC-2, RCC-5); type: cell-based, mouse, rat
# Experimental: as §2, §3, §4, §5
# [12] = tested on: S180 cell system (S180, A3, A10); assay: Inherent cytotoxicity in the S180 cell system (S180, A3, A10); type: cell-based, murine
# Source text: as §1, §2
# FIG. 2 represents the toxicity of the vinca alkaloid compounds to population growth. Vindoline, vincovaline or the analog, C-20'-deoxy vincovaline was added, at various concentrations, to S180 (.cndot.), A3 (o), or A10 (Δ) cell cultures. The population cell number was determined 72 hours later.
Structure (SMILES),MNTC at 72 h [1] [µM],MNTC at 72 h [2] [µM],MNTC at 72 h [3] [µM],IC50 [4] [µM],"Maximum sensitization of parental cells by modulator, drug ADM [5]","Maximum sensitization of parental cells by modulator, drug VBL [5]","Maximum sensitization of parental cells by modulator, drug VCR [5]","Maximum sensitization of parental cells by modulator, drug VCR [6]","Maximum sensitization of parental cells by modulator, drug ADM [7]","Maximum sensitization of parental cells by modulator, drug VBL [7]","Maximum sensitization of parental cells by modulator, drug VCR [7]","Modulator potency in MDR cells (minimal concentration restoring parental drug sensitivity), VBL [8] [µM]","Modulator potency in MDR cells (minimal concentration restoring parental drug sensitivity), VCR [8]","Modulator potency in MDR cells (minimal concentration restoring parental drug sensitivity), ADM ([9]; ADM)","Modulator potency in MDR cells (minimal concentration restoring parental drug sensitivity), VBL [9]",modulation of intrinsic cellular resistance to ADM and/or VCR (in words) ([11]; VCR),effect on the sensitivity of parental cells to VBL (in words) [11],also measured
"CC[C@]12C=CCN3CC[C@@]4(c5cc([C@]6(C(=O)OC)C[C@@H]7CCCN(CCc8c6[nH]c6ccccc86)C7)c(OC)cc5N(C)[C@H]4[C@@](O)(C(=O)OC)[C@@H]1OC(C)=O)[C@@H]32 [analog n° 331, C-16' epi-C-20'-deoxy-C-20'-deethylvinblastine]",10,20,50,≥ 5,3.4,1.0,2.5,2.0,3.5,1.0,2.0,5.0,10. μM,no effect,34. μM,modulated intrinsic cellular resistance to ADM and/or VCR,less effect on the sensitivity of parental cells to VBL,"restoration of parental drug sensitivity in MDR cells (in words) ([10]; VBL, VCR, ADM): full restoration of parental drug sensitivity was achieved for VBL and low level VCR resistance, only"
"CC[C@H]1C[C@@H]2CN(CCc3c([nH]c4ccccc34)[C@](C(=O)OC)(c3cc4c(cc3OC)N(C)[C@H]3[C@@](O)(C(=O)OC)[C@H](OC(C)=O)[C@]5(CC)C=CCN6CC[C@]43[C@@H]65)C2)C1 [analog n° 354, C-20'-deoxy-C-16', 20' epi VBL]",5,5,20,≥ 5,5.0,1.0,3.0,4.0,5.3,1.9,18.0,1.7,10.0 µM,40. μM,10.0 µM,modulated intrinsic cellular resistance to ADM and/or VCR,less effect on the sensitivity of parental cells to VBL,"Maximum sensitization of parental cells by modulator, drug ADM [6]: 1.9; Maximum sensitization of parental cells by modulator, drug VBL [6]: 1.2; Modulator potency in MDR cells (minimal concentration restoring parental drug sensitivity), ADM ([8]; ADM, drug resistance level 15): 25. μM; reversal of high level ADM resistance ([9]; ADM, 90-fold resistance, A10): 80%; Modulator potency in MDR cells (minimal concentration restoring parental drug sensitivity), VCR ([9]; VCR, drug resistance level 17): 20.0 µM; range of resistance levels over which parental sensitivity was restored ([10]; VBL, VCR and ADM): 3-90 fold; enhancement of VCR cytotoxicity in the parental cell lines ([11]; VCR): 7-18 fold"
"CCC12C=CCN3CC[C@@]4(c5ccc(OC)cc5N(C)[C@H]4[C@@](O)(C(=O)OC)[C@@H]1OC(C)=O)[C@@H]32 (some centres unmarked) [vindoline, reference compound]",–,–,–,–,–,–,–,–,–,–,–,–,–,–,–,–,–,"inherent cytotoxicity / resistance profile (in words) [12]: equitoxic to parental and MDR cell lines; IC50 ([12]; Mus musculus, S-180, S180 parental and MDR cell lines, read-out: IC50 (inhibition of cell growth)): 40 µM; inherent cytotoxicity / resistance profile (in words) ([12]; S180, A3, A10): inhibited the growth of the parental and MDR cell strains with a similar dependence on concentration; modulation of sensitivity of parental S180 cells to VBL, VCR and ADM (in words) [5]: sensitized S180 cells to all three drugs with a similar dependence on its concentration; also recorded: sensitized the parental S180 cells to all three drugs; modulation of sensitivity of parental S180 cells to VBL, VCR and ADM (in words) ([5]; listed as Vindoline): no evidence of selective modulation; reversal of high level ADM resistance (in words) ([9]; A10 cells, 90 fold ADM resistance): limited in this activity by their own cytoxicity in the MDR cell lines; modulation of cellular resistance to VBL, VCR and ADM in MDR cell strains (in words) ([10]; A3 and A10): modulators of cellular resistance to VBL, VCR and ADM; relation of reversing concentration to degree of drug resistance (in words) ([10]; A3 and A10, VBL, VCR, ADM): This correllation was not observed"

# — patent publication US5369111A, “Modulator agent and use thereof” (University of Vermont, priority 1992, dated 1994)
